Patent US5935998A, “Use of all allylamine derivatives such as terbinafine, in the manufacture of a medicament for the treatment of helicobacter pylori infection or associated diseases” (Novartis AG, priority 1995, dated 1999)
In brackets after ≈: the same amount, converted by molar mass. Where two headings read alike, the source gives them in different places.

Legend:
Helicobacter pylori = assay: MIC (minimum inhibitory concentration) determination using various clinical isolates of H.pylori; type: cell-based; details: Mueller-Hinton agar with 7% defibrinated horse blood, pH 7.2, 72 hours, 37° C., 5% CO2
Description: The activity of the compounds of formula I against Helicobacter pylori can be verified e.g. by determination of the MIC (minimum inhibitory concentration) in the following test method using various clinical isolates of H.pylori: Clinical isolates of H.pylori are stored at -70° C. in Brucella broth with 20% glycerol. All isolates are subcultured on fresh blood agar Blood agar base No. 2, Unipath, with 5% defibrinated horse blood) and confirmed as Helicobacter pylori by Gram shin, catalase, oxidase and rapid-urease tests. Initial incubation is carried out microaerobically in a variable-atmosphere incubator (6% O2, 10% CO2, 3% H2, 81% N2) at 37° C. Subcultures and MIC tests are carried out in humidified air with 5% CO2 at 37° C. Test compounds are incorporated into Mueller-Hinton agar (Unipath) with 7% defibrinated horse blood at pH 7.2. After growth for 72 hours on blood agar H.pylori suspensions are made in Brucella broth (Unipath) equivalent to McFarland standard No. 3. This represents 10^8 cfu/ml H.pylori. A multipoint inoculator will deliver 1 μl per spot (approximately 10^5 cfu). The type strain NCTC 11637 is used as a control in each run. […] All tests are carried out in triplicate.

in vivo = details: mouse, acute

| MIC (Helicobacter pylori) [µg/mL] | SMILES | LD50 (in vivo; ip, i.p., read-out: LD50 i.p.) [mg/kg] | LD50 (in vivo; po, p.o., read-out: LD50 p.o.) [mg/kg] |
| --- | --- | --- | --- |
| 0.06 to 4 (≈ 0.183 to 12.2 µM) | C(=C\c1ccccc1)/CN1CCCC[C@@H]1c1cccc2ccccc12 [N-[(E)-3-phenyl-2-propenyl-2-piperidinyl] | – | – |
| – | CN(C/C=C/C#CC(C)(C)C)Cc1cccc2ccccc12 | 790 | > 1000 |
